# “Also recorded” adds a separate entry of the source. Like-named read-outs stand apart in the source and are kept apart here.
# Assay: Tissue distribution of SHR9146 in mice after oral gavage of 40 mg/kg
# Format: in vivo, ICR mice
# Details: for concentration at 6 h / concentration at 24 h / concentration at 1 h / concentration at 3 h: male, ICR, mouse, po, 40 mg/kg oral gavage
# Experimental: ICR mice with body weight 16–26 g were supplied by Shanghai Lingchang Biotechnology Co., Ltd. (animal breeding license number SCXK (Shanghai) 2013-0018) and housed at Shanghai Institute of Materia Medica, Chinese Academy of Sciences [animal use license number SYXK (Shanghai) 2015-0027]. The mice used in this study were fasted overnight for 12 h but had free access to water. Food was supplied 4 h post-dose. All experiments in this study were conducted in accordance with the Guidelines for the Care and Use of Laboratory Animals of Shanghai Institute of Materia Medica, Chinese Academy of Sciences.
# Another set of 30 mice were randomly assigned into five groups with equal numbers, males and females, for tissue distribution study with oral gavage at a single dose of 40 mg/kg at predetermined different time points: pre-dose and post dose at 1, 3, 6, and 24 h, respectively. The whole brain, heart, liver, spleen, lung, kidney, bladder, pancreas, testis, ovary, uterus, stomach, small intestine, adrenal gland, skin, skeletal muscle, thyroid gland, and abdominal fat tissues as well as the whole blood and plasma samples were harvested. Tissue samples were washed with 0.9% sodium chloride solution to remove the residual blood or contents, blotted on a filter paper, and stored at −70°C prior to the analysis.
# Protein precipitation was selected for the pretreatment of both the plasma and the tissue homogenate prepared after thawing at room temperature, cut into pieces, and homogenized with a quintuple methanol–water mixture (1:1, v/v) for each tissue sample.
# Briefly as follows, an aliquot of 25-μL plasma or tissue homogenate was spiked with 100 μL of internal standard solution (1 μg/mL for plasma, 0.2 μg/mL for tissue homogenate) and 300 μL of methanol added and vortex mixed for 60 s. The mixture was then centrifuged at 14,000 rpm at 4°C for 5.0 min, and the supernatant was diluted with methanol–water (4:1, v/v) in a ratio of 1:9 for the plasma or 1:1 for the tissue homogenate, and 5 μL of the resulting solution was injected for the LC-MS/MS analysis.
# After oral administration of 40 mg/kg SHR9146, samples in different tissues at predetermined time points (pre-drug administration, post-drug administration at 1, 3, 6, and 24 h) were collected and prepared for the analysis. The drug concentrations of SHR9146 (μg/g or μg/mL) were determined for each mouse, and the mean and standard deviation were further obtained (Table S7).
# [1] = kidney, 40 mg/kg, Mean (n=3), read-out: SHR9146 concentration in Kidney
# [2] = liver, 40 mg/kg, Mean (n=3), read-out: SHR9146 concentration in Liver
# [3] = liver, 40 mg/kg, individual mice, read-out: SHR9146 concentration in Liver
# [4] = lung, 40 mg/kg, Mean (n=3), read-out: SHR9146 concentration in Lung
# [5] = lung, 40 mg/kg, individual mice, read-out: SHR9146 concentration in Lung
# [6] = pancreas, 40 mg/kg, Mean (n=3), read-out: SHR9146 concentration in Pancreas
# [7] = pancreas, 40 mg/kg, individual mice, read-out: SHR9146 concentration in Pancreas
# [8] = plasma, 40 mg/kg, Mean (n=3), read-out: SHR9146 concentration in Plasma
# [9] = plasma, 40 mg/kg, individual mice, read-out: SHR9146 concentration in Plasma
# [10] = skeletal muscle, 40 mg/kg, Mean (n=3), read-out: SHR9146 concentration in Skeletal muscle
# [11] = skeletal muscle, 40 mg/kg, individual mice, read-out: SHR9146 concentration in Skeletal muscle
# [12] = skin, 40 mg/kg, Mean (n=3), read-out: SHR9146 concentration in Skin
# [13] = small intestine, 40 mg/kg, Mean (n=3), read-out: SHR9146 concentration in Small intestine
# [14] = small intestine, 40 mg/kg, individual mice, read-out: SHR9146 concentration in Small intestine
# [15] = spleen, 40 mg/kg, Mean (n=3), read-out: SHR9146 concentration in Spleen
# [16] = spleen, 40 mg/kg, individual mice, read-out: SHR9146 concentration in Spleen
# [17] = stomach, 40 mg/kg, Mean (n=3), read-out: SHR9146 concentration in Stomach
# [18] = testis, 40 mg/kg, Mean (n=3), read-out: SHR9146 concentration in Testis
# [19] = thyroid gland, 40 mg/kg, Mean (n=3), read-out: SHR9146 concentration in thyroid gland
# [20] = thyroid gland, 40 mg/kg, individual mice, read-out: SHR9146 concentration in thyroid gland
# [21] = whole blood, 40 mg/kg, Mean (n=3), read-out: SHR9146 concentration in Whole blood
# [22] = whole blood, 40 mg/kg, individual mice, read-out: SHR9146 concentration in Whole blood
smiles,measurement,setting,value
OCCn1cc(-c2ccc(N3CCC([C@H]4c5c(F)cccc5-c5cncn54)CC3)cc2)cn1 [SHR9146],concentration at 6 h,[1],210 ng/g
same,concentration at 24 h,[1],18 ng/g
same,concentration at 24 h,"kidney, 40 mg/kg, individual mice, read-out: SHR9146 concentration in Kidney",55 ng/g
same,concentration at 1 h,[2],20000 ng/g
same,concentration at 1 h,[3],22000 ng/g
same,concentration at 3 h,[2],9670 ng/g
same,concentration at 6 h,[2],633 ng/g
same,concentration at 24 h,[2],110 ng/g
same,concentration at 24 h,[3],330 ng/g
same,concentration at 1 h,[4],12500 ng/g
same,concentration at 1 h,[5],13100 ng/g
same,concentration at 3 h,[4],5160 ng/g
same,concentration at 6 h,[4],645 ng/g
same,concentration at 6 h,[5],725 ng/g
same,concentration at 24 h,[4],11700 ng/g
same,concentration at 1 h,[6],12600 ng/g
same,concentration at 1 h,[7],13800 ng/g
same,concentration at 3 h,[6],4870 ng/g
same,concentration at 6 h,[6],67 ng/g
same,concentration at 6 h,[7],74 ng/g
same,concentration at 1 h,[8],9120 ng/mL
same,concentration at 1 h,[9],10100 ng/mL
same,concentration at 3 h,[8],3710 ng/mL
same,concentration at 6 h,[8],49 ng/mL
same,concentration at 6 h,[9],53 ng/mL
same,concentration at 1 h,[10],5600 ng/g
same,concentration at 1 h,[11],6100 ng/g
same,concentration at 3 h,[10],2220 ng/g
same,concentration at 6 h,[10],23 ng/g
same,concentration at 6 h,[11],70 ng/g
same,concentration at 1 h,[12],7210 ng/g
same,concentration at 3 h,[12],3110 ng/g
same,concentration at 6 h,[12],113 ng/g
same,concentration at 24 h,[12],21 ng/g
same,concentration at 24 h,"skin, 40 mg/kg, individual mice, read-out: SHR9146 concentration in Skin",64 ng/g
same,concentration at 1 h,[13],22700 ng/g
same,concentration at 1 h,[14],19200 ng/g
same,concentration at 3 h,[13],6910 ng/g
same,concentration at 6 h,[13],90 ng/g
same,concentration at 6 h,[14],117 ng/g
same,concentration at 1 h,[15],4840 ng/g
same,concentration at 1 h,[16],5540 ng/g
same,concentration at 3 h,[15],1700 ng/g
same,concentration at 6 h,[15],17 ng/g
same,concentration at 6 h,[16],51 ng/g
same,concentration at 1 h,[17],38000 ng/g
same,concentration at 1 h,"stomach, 40 mg/kg, individual mice, read-out: SHR9146 concentration in Stomach",39900 ng/g
same,concentration at 3 h,[17],10200 ng/g
same,concentration at 6 h,[17],1140 ng/g
same,concentration at 24 h,[17],499 ng/g
same,concentration at 1 h,[18],4000 ng/g
same,concentration at 1 h,"testis, 40 mg/kg, individual mice, read-out: SHR9146 concentration in Testis",4160 ng/g
same,concentration at 3 h,[18],1660 ng/g
same,concentration at 6 h,[18],100 ng/g
same,concentration at 1 h,[19],7010 ng/g
same,concentration at 1 h,[20],7250 ng/g
same,concentration at 3 h,[19],2730 ng/g
same,concentration at 6 h,[19],63 ng/g
same,concentration at 6 h,[20],71 ng/g
same,concentration at 1 h,[21],6060 ng/mL
same,concentration at 1 h,[22],6820 ng/mL
same,concentration at 3 h,[21],2440 ng/mL
same,concentration at 6 h,[21],22 ng/mL
same,concentration at 6 h,[22],67 ng/mL
same,distribution into brain,"oral 40 mg/kg, mice, 40 mg/kg",lowest; also recorded: rarely distributed in the brain
same,tissue distribution,"oral 40 mg/kg, mice, 40 mg/kg","widely distributed in various tissues and mainly distributed in the stomach, adrenal gland, liver, and lung"
same,tissue concentration at 24 h as share of the highest concentration,"oral 40 mg/kg, mice, last time point 24 h",around 3.1%

# Reference: article PMC10410440, “Preclinical PK investigation of a novel IDO1/TDO dual inhibitor—SHR9146 in mouse plasma and tissues by LC-MS/MS” (Frontiers in Oncology, 2023)
